Data from patent US10011568B2, “Cyclohexyl pyridine derivative” (priority 2014, dated 2018).

Legend:
human NK1 receptor [1] = molecular target: T1, human NK1 receptor (Homo sapiens (Human), UniProt P25103); assay: Inhibitory effect on human NK1 receptor (substance P-induced increase in intracellular calcium concentration); format: cell-based; conditions: substance P 1 μM, compound 0.1 μM; read-out: SPRR (%), Substance P-Response Remaining (intracellular calcium concentration)
Protocol: Inhibitory Effect on Human NK1 Receptor
(1) Preparation of Human NK1 Receptor-Expressing Cells
Human NK1 receptor-expressing cells were prepared by the same methods as those described in 2-3 of Test Example 1.
(2) Study on Inhibitory Effect on Increase in Intracellular Calcium Concentration
The human NK1 receptor-expressing cells were washed with 300 μL/well of a washing solution (20 mM HEPES/Hank's Balanced Salt Solution (HBSS) pH 7.3). A fluorescent calcium indicator (Fluo-4 Direct Calcium Assay Kit, Life Technologies, containing 0.42 mM probenecid and 0.1% bovine serum albumin, prepared according to the protocol of the product) was added to the wells at 150 μL/well, and the plate was incubated at 37° C. for 30 minutes in an incubator. Then. DMSO solutions of a test compound, which were prepared at an 80-time higher concentration using 100% dimethyl sulfoxide (DMSO), were added to the wells at 2.5 μL/well (final concentrations of 0.1, 1 and 10 μM), and the solutions were mixed. Then, the plate was further incubated at […] for 30 minutes in an incubator. After 30 minutes, the intracellular calcium concentrations were measured immediately.
The intracellular calcium concentrations were each measured as a fluorescent signal using FDSS (registered trademark) 7000 (Hamamatsu Photonics). A substance P (Peptide Institute. Inc.) solution which was prepared at 0.4 μM or 4 μM using an assay buffer (20 mM HEPES/Hank's Balanced Salt Solution (HBSS) pH 7.3, containing 0.1% bovine serum albumin) was added automatically to each well at 50 μL/well (final concentration of 0.1 or 1 μM) 10 seconds after starting reading, and the fluorescent signal was measured up to 120 seconds.
The intracellular calcium concentration (%) of the cells to which a test compound was added was calculated by the equation below, where the fluorescent signal of the group to which the vehicle (DMSO) was added was regarded as 100%, and the fluorescent signal before the addition of substance P was regarded as 0%. Intracellular calcium concentration (%)—(Fluorescent signal of test compound addition group)/(Fluorescent signal of vehicle addition group)×100
The intracellular calcium concentration (%) calculated was regarded as the remaining agonist activity of substance P (Substance P-Response Remaining: SPRR). In the table, Ex. No. means the Example number. SPRR (%) is the value obtained when the concentration of substance P was 1 μM and the concentration of the compound was 0.1 μM.

human CYP3A4 = human CYP3A4 (Homo sapiens (Human), UniProt P08684); assay: Inhibitory effect on CYP3A4; format: in vitro ADME; conditions: 30-minute pre-incubation, Luciferin-IPA substrate; read-out: IC50 (μM), CYP3A4 inhibition
Protocol: Inhibitory Effect on CYP3A4
Enzyme reaction was performed by incubating in a potassium phosphate buffer solution (pH 7.4) containing 1 nM to 20 μM test compound, 3.2 mM magnesium chloride, 0.2 pmol human CYP3A4 (BD Biosciences), 0.5 mM reduced nicotinamide adenine dinucleotide phosphate (NADPH) and 3 μM Luciferin-IPA (Promega) at 37° C. for 10 minutes. The volume of the reaction solution was 50 μL/well. The 30-minute pre-incubation group was incubated at 37° C. for 30 minutes before adding tire substrate, the Luciferin-IPA solution (12.5 μL/well). At the end of the enzyme reaction, 50 μL/well of a Luciferin detection reagent (Promega) was added to the wells, and the plate was left at room temperature for 20 minutes. Then, the emission intensities were measured with Infinite M1000 (TECAN). The enzyme activities (%) relative to the value of the group to which the test compound was not added were calculated.

human NK1 receptor [2] = molecular target: T1, human NK1 receptor; assay: Affinity for human NK1 receptor (125I-substance P receptor binding test, membrane fraction); conditions: membrane fraction of human NK1 receptor-expressing 293T cells; read-out: IC50 (nM), concentration required for 50% inhibition of 125I-substance P binding
Protocol: Affinity for Human NK1 Receptor
(3) Measurement of Binding Affinity to Human NK1 Receptor
(3-1) Preparation of Membrane Fraction from Human NK1 Receptor-Expressing Cells
Human NK1 receptor-expressing cells were prepared in a 175 cm^2 culture flask (Nippon Becton Dickinson). The formation of a complex of the human NK1 receptor expression plasmid and Lipofectamine 2000 was performed by calculating the culture area ratio and increasing the scale of the method described in the above 2-4 by the ratio. The human NK1 receptor-expressing cells were collected in a buffer solution for the membrane fraction preparation (50 mM Tris (Wako Pure Chemical), 120 mM sodium chloride (Wako Pure Chemical Industries), 5 mM potassium chloride (Wako Pure Chemical Industries), 1 mM ethylenediaminetetraacetic acid (Sigma), 0.002 mg/mL chymostatin (Peptide Institute), 0.04 mg/bacitracin (Wako Pure Chemical Industries), 0.005 mg/mL phosphoramidon (Peptide Institute) and 0.5 mM phenylmethylsulfonyl fluoride (Wako Pure Chemical Industries), pH7.4) and centrifuged at 1,880 g for 10 minutes, and the cell sediment was suspended in the buffer solution for the membrane fraction preparation. After freezing and thawing the cells once, the cells were homogenized using a Dounce-type homogenizer (cooled on ice, 1000 rpm, 20 times) The homogenized cell suspension was centrifuged at 20,000 rpm for 10 minutes, and the supernatant was removed to obtain cell sediment. The cell sediment was suspended again in the buffer solution for the membrane fraction preparation and homogenized using a Dounce-type homogenizer (cooled on ice, 1000 rpm, 30 times). The cell suspension was centrifuged at 20,000 rpm for 10 minutes, and the supernatant was removed to obtain cell sediment. The same homogenization and centrifugation were repeated again, and final cell sediment was obtained. The final cell sediment was suspended in a buffer solution for the receptor binding test (50 mM Tris (Wako Pure Chemical Industries). 3 mM manganese chloride (Wako Pure Chemical Industries), 0.002 mg/mL chymostatin (Peptide Institute), 0.04 mg/bacitracin (Wako Pure Chemical Industries) and 0.02% bovine serum albumin (Sigma), pH 7.4), and the protein concentration was measured using BCA Protein Assay Kit (Pierce).
(3-2) Receptor Binding Test
The buffer solution for the receptor binding test was dispensed to the wells of a 96-well assay plate (Greiner) at 22.5 μL/well. DMSO solutions of a test compound, which were prepared at an 80-time higher concentration using 100% dimethyl sulfoxide (DMSO), were added to the wells at 2.5 μL/well (final concentrations of 1 nM to 100 nM), and the solutions were mixed. As a radiolabeled ligand, ^125I-substance P (Substance P, [^125I]Tyr^8-, Perkin Elmer) was used. ^125I-substance P was diluted with the buffer solution for the receptor binding test to a concentration resulting in 125 pmol/25 μL/well and added to the 96-well assay plate, and the solutions were mixed. The membrane fraction prepared from the human NK1 receptor-expressing cells was diluted with the buffer solution for the receptor binding test to a concentration resulting in 8 to 10 μg/well, suspended until the suspension became in such a homogenous state that the suspension could flow through a 27G injection needle smoothly and then added to the 96-well assay plate at 150 μL/well. Then, the plate was incubated at room temperature for 60 minutes while shaking the plate. The reaction solutions were suction-filtered through a multiscreen 96-well filter plate (Millipore) which had been pre-treated with 0.3% polyethyleneimine, and the reaction was terminated by washing with a washing solution (50 mM Tris and 0.02% bovine serum albumin, pH 7.4) four times. The bottom of the microplate was dried at 60° C., and then 100 μL/well of MicroScint 20 (PerkinElmer) was dispensed to the wells. The top of the plate was sealed with TopSeal A (PerkinElmer), and the plate was shaken for 5 to 10 minutes. […]

[3] = Measurement of drug concentrations in the brain after foot-tapping; format: in vivo; conditions: male gerbil, 0.1 mg/kg iv, after foot-tapping was finished
Protocol: (§1) A male gerbil (Japan SLC) was anesthetized with isoflurane, and 0.1 mg/kg of a test compound was administered from the jugular vein. After four hours. GR73632 (5 pmol/5 μl saline), which is an NK1 receptor agonist, was administered into the cerebral ventricle at the part 1 mm lateral to and 4.5 mm below the bregma in the head, under anesthesia with isoflurane. After the administration, the gerbil was moved to an observation cage, and the foot-tapping period during 30 minutes after the recovery of the righting reflex was measured. The foot-tapping inhibition rate (%) of each test compound was calculated by the following equation. Foot-tapping inhibition rate (%)−{1−(Fool-tapping period when test compound was administered)/(Foot-tapping period when solvent was administered)}×100 (2) Measurement of Drug Concentrations
After foot-tapping was finished, laparotomy was performed immediately under anesthesia with ether, and a blood sample was taken from the abdominal vena cava. At the same lime, the brain was extracted. Through a quantitative analysis using liquid chromatography-mass spectrometry (LC/MS), the concentrations of the test compound in the plasma and the brain were measured.
(§2) In the table, Ex. No. means the Example number. Inhibition (%) is the loot-tapping inhibition rate, and Cone. (nM) is the drug concentration in the brain.

NK1 receptor = NK1 receptor (Meriones unguiculatus (Mongolian jird) (Gerbillus unguiculatus), UniProt Q5DUB1); assay: Effect on foot-tapping induced by NK1 receptor agonist GR73632; format: in vivo; conditions: male gerbil, 0.1 mg/kg iv, GR73632 after four hours
Protocol: (1) Effect on Foot-Tapping
The test compound solution was prepared by dissolving the test compound in a vehicle (a mixture of 50% N,N-dimethylacetamide (Wako Pure Chemical Industries), 30% propylene glycol (Wako Pure Chemical Industries). 4% 2-hydroxypropyl-β-cyclodextrin (Wako Pure Chemical Industries) and 16% distilled water).
as §1, §2

Sequence of human CYP3A4 (P08684 whole entry): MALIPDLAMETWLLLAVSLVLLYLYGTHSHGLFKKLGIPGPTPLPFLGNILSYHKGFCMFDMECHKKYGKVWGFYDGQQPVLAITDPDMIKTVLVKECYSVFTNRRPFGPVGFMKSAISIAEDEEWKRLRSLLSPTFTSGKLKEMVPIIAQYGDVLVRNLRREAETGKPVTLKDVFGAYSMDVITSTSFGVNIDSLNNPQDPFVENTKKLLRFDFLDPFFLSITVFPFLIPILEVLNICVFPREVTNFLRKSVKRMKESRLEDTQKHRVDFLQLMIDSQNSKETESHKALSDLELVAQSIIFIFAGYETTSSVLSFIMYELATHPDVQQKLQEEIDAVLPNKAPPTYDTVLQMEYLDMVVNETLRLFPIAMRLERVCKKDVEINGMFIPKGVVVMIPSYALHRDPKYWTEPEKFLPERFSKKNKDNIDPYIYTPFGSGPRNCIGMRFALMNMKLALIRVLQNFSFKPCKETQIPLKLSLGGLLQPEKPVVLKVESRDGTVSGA
T1 sequence (P25103 whole entry): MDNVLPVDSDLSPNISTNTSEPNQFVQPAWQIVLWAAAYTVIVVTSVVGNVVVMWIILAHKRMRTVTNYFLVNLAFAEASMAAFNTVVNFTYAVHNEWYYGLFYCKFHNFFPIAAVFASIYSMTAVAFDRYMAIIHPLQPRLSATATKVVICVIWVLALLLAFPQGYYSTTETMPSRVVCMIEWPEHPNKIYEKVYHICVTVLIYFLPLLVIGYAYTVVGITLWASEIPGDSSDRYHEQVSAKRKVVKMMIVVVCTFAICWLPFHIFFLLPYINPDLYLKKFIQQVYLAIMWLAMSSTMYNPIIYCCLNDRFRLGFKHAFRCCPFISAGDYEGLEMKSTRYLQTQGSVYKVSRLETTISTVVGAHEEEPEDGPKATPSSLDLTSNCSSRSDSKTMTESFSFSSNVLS
Sequence of NK1 receptor (Q5DUB1 whole entry): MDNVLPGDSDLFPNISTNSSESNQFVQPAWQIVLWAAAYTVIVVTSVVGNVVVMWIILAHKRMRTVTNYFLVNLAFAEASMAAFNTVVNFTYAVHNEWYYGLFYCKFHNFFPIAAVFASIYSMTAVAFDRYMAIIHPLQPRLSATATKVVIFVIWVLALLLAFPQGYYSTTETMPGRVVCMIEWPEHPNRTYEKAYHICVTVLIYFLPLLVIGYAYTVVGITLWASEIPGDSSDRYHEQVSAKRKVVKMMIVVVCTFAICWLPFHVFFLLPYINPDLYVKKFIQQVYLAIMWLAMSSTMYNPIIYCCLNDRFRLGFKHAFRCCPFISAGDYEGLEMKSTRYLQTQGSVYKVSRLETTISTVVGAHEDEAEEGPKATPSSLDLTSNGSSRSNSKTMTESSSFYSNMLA

Row | Compound | remaining activity at 0.1 µM (human NK1 receptor [1]) [%] | IC50 (human CYP3A4) [µM] | IC50 (human NK1 receptor [2]) [nM] | Conc. (nM), drug concentration in the brain [3] [nM] | Inhibition (%), foot-tapping inhibition rate (NK1 receptor) [%]
1 | Cc1cc(F)ccc1-c1cc(C2CCC(O)(CC(=O)O)CC2)ncc1N(C)C(=O)C(C)(C)c1cc(C(F)(F)F)cc(C(F)(F)F)c1 (stereo not shown) [Example 6, {4-[5-{[2-(3,5-Bistrifluoromethylphenyl)-2-methylpropionyl]methylamino}-4-(4-fluoro-2-methylphenyl)pyridin-2-yl]-1-hydroxycyclohexyl}acetic Acid] | 21 | 6.1 | 1 |  | 
2 | Cc1cc(F)ccc1-c1cc(C2CCC(CC(=O)O)CC2)nc(C)c1N(C)C(=O)C(C)(C)c1cc(C(F)(F)F)cc(C(F)(F)F)c1 (stereo not shown) [Example 18, {4-[5-{[2-(3,5-Bistrifluoromethylphenyl)-2-methylpropionyl]methylamino}-4-(4-fluoro-2-methylphenyl)-6-methylpyridin-2-yl]cyclohexyl}acetic Acid] |  | 4.9 | 6.45 | 47 | 100
3 | Cc1cc(F)ccc1-c1cc(C2CCC(C)(CC(=O)O)CC2)ncc1N(C)C(=O)C(C)(C)c1cc(C(F)(F)F)cc(C(F)(F)F)c1 (stereo not shown) [Example 15, {4-[5-{[2-(3,5-Bistrifluoromethylphenyl)-2-methylpropionyl]methylamino}-4-(4-fluoro-2-methylphenyl)pyridin-2-yl]-1-methylcycloheyl}acetic Acid] | 3.7 |  |  | 39 | 100
4 | Cc1cc(F)ccc1-c1cc(C2CCC(CCC(=O)O)CC2)ncc1N(C)C(=O)C(C)(C)c1cc(C(F)(F)F)cc(C(F)(F)F)c1 (stereo not shown) [Example 2, 3-{4-[5-{[2-(3,5-Bistrifluoromethylphenyl)-2-methylpropionyl]methylamino}-4-(4-fluoro-2-methylphenyl)pyridin-2-yl]cyclohexyl}propionic Acid] | 7.5 | 6.8 |  | 19 | 
5 | Cc1cc(F)ccc1-c1cc(C2CCC(CC(=O)O)CC2)ncc1N(C)C(=O)C(C)(CO)c1cc(C(F)(F)F)cc(C(F)(F)F)c1 (stereo not shown) [Example 5, {4-[5-{[2-(3,5-Bistrifluoromethylphenyl)-3-hydroxy-2-methylpropionyl]methylamino}-4-(4-fluoro-2-methylphenyl)pyridin-2-yl]cyclohexyl}acetic Acid] | 26 | 13 | 0.98 |  | 
6 | Cc1cc(F)ccc1-c1cc(C2CCC(CC(=O)O)CC2)nc(CO)c1N(C)C(=O)C(C)(C)c1cc(C(F)(F)F)cc(C(F)(F)F)c1 (stereo not shown) [Example 19, {4-[5-{[2-(3,5-Bistrifluoromethylphenyl)-2-methylpropionyl]methylamino}-4-(4-fluoro-2-methylphenyl)-6-hydroxymethylpyridin-2-yl]cyclohexyl}acetic Acid] | 26 |  | 4.96 | 24 | 95
7 | Cc1cc(F)ccc1-c1cc(C2CCC(CC(=O)O)CC2)nc(Cl)c1N(C)C(=O)C(C)(C)c1cc(C(F)(F)F)cc(C(F)(F)F)c1 (stereo not shown) [Example 17, {4-[5-{[2-(3,5-Bistrifluoromethylphenyl)-2-methylpropionyl]methylamino}-6-chloro-4-(4-fluoro-2-methylphenyl)pyridin-2-yl]cyclohexyl}acetic Acid] |  | 3.3 |  | 57 | 
8 | Cc1cc(F)ccc1-c1cc([C@H]2CC[C@@H](C(C)(C)C(=O)O)CC2)ncc1N(C)C(=O)C(C)(C)c1cc(C(F)(F)F)cc(C(F)(F)F)c1 [Example 12, cis-2-{4-[5-{[2-(3,5-Bistrifluoromethylphenyl)-2-methylpropionyl]methylamino}-4-(4-fluoro-2-methylphenyl)pyridin-2-yl]cyclohexyl}-2-methylpropionic Acid] | 53 | 2.2 | 4.46 |  | 
